Assay results taken from patent publication US8673351B2, “Crystallization inhibitor and its use in gelatin capsules” (Ivax Pharmaceuticals S.R.O., priority 2005, dated 2014).

Test: Titration of lipophilic capsule contents (placebo) with water until emulsification (robustness)
Assay type: physicochemical
Settings: placebo capsule contents after the 5 w/w addition of the emulsion stabilizer; titrated with water at room temperature until clear oily liquid turns into milky turbid emulsion
Description: The resistance of the contents of gelatin capsules to the water passing inside was quantified by performing a titration experiment. While stirring constantly using a magnetic stirrer at room temperature, the lipophilic contents intended for capsules was gradually titrated with water until the clear oily liquid begins to change into a milky turbid emulsion.
The robustness of the contents was expressed in the following table as an amount of water, in % w/w, necessary to induce emulsification of the contents.

Row | Robustness (amount of water necessary to induce emulsification of the contents) [weight %] | Compound
1 | 0.84 | Decaglyceryl monolaurate
2 | 1.68 | Diglyceryl monooleate

The next lines start with the compound.

Row | Compound | Robustness (amount of water necessary to induce emulsification of the contents) [weight %]
3 | CCCCC/C=C\C/C=C\CCCCCCCC(=O)OCC(O)CO (stereo not drawn) [Glyceryl monolinoleate] | 3.23
4 | CCCCCCCC/C=C\CCCCCCCC(=O)OCC(O)CO (stereo not drawn) [Glyceryl monooleate] | 4.98
5 | Decaglyceryl decaoleate | 0.85
6 | Decaglyceryl monooleate | 1.02
